Measurements published in patent US20060025430A1, “Novel irreversible inhibitors of epidermal growth factor receptor tyrosine kinase and uses thereof for therapy and diagnosis” (priority 2003, published 2006).
pIC50: −log10 of the molar value.

Assays:
Type in all cases: cell-based
HER1-HER2 chimera = biological target: T1, HER1-HER2 chimera (Homo sapiens, UniProt P04626); experiment: Selective-inhibition assay in CSH12 cells (receptor phosphotyrosine, Western blot); conditions: CSH12 cells expressing HER1-HER2 chimera, 1 hour incubation, EGF stimulation
T1 construct: HER2 cytoplasmic domain generates normal mitogenic and transforming signals in a chimeric receptor; expressed in transfected cells; host or cells: NIH3T3 (CSH12 cells); the other entry of the earlier key: EGFR (P00533, Epidermal growth factor receptor)
T1 sequence (P04626 with tags, fused parts or gaps): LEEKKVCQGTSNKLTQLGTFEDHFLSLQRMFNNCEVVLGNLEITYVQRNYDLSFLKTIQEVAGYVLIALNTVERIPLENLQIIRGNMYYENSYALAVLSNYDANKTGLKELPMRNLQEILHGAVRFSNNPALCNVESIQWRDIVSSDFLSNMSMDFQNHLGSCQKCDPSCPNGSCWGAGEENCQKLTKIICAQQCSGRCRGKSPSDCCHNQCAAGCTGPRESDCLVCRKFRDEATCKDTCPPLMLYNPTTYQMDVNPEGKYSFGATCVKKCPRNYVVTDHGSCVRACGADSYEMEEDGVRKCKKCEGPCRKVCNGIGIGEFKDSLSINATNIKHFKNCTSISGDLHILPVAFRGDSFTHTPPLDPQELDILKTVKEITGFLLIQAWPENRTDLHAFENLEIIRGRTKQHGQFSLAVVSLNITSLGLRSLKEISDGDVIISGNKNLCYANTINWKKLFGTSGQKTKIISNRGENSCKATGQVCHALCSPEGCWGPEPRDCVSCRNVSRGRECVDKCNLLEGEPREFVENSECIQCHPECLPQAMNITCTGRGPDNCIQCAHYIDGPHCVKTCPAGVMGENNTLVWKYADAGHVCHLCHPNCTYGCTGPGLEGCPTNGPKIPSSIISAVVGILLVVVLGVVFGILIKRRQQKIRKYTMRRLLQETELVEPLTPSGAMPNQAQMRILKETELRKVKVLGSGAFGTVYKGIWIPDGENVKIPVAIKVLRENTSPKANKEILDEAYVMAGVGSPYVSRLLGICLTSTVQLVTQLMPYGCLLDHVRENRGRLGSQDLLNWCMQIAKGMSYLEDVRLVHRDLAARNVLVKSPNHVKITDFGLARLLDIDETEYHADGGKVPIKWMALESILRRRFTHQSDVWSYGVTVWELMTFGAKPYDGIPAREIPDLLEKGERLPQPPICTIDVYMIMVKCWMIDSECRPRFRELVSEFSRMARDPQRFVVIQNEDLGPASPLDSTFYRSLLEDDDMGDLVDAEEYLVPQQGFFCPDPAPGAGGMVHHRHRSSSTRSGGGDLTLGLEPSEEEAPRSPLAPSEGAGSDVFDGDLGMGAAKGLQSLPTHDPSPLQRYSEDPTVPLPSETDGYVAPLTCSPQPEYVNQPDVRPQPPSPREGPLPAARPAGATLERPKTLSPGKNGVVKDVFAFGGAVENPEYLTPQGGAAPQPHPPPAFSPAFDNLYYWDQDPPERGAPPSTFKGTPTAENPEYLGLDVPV
Excerpt: (§1) Identical protein amounts from each lysate sample were loaded onto polyacrylamide gel (6% or 10%), separated by electrophoresis (Hoefer Pharmacia Biotech Inc., San Francisco, USA) and transferred to nitrocellulose membrane (power supply: EPS 500/400, Amersham Pharmacia Biotech; nitrocellulose extra blotting membranes: Sartorius AG, Goettingen, Germany). A standard high molecular weight solution was loaded as a reference. For visualization of molecular weight bands, the membrane was immersed in Ponceau reagent (0.05% Ponceau, 5% acetic acid) for a few minutes, and then washed twice with TTN (10 mM Tris pH 7.4, 0.2% TWEEN 20, 170 mM NaCl) and once with water. The membrane was blocked overnight in TTN containing 5% milk (1% fat) (blocking TTN) and incubated for 90 minutes with PY20 antiphosphotyrosine antibody (Santa Cruz Biotechnology Inc., Santa Cruz, USA) diluted 1:2,000 in blocking TTN. The membrane was then washed with TTN (3×5 minutes), incubated for 90 minutes with a horseradish peroxidase-conjugated secondary antibody (Goat anti-mouse IgG H+L, Jackson ImResearch Laboratories, Inc., diluted 1:10,000 in blocking TTN), and finally washed again with TTN (3×5 minutes).

EGFR = biological target: T2, EGFR (Homo sapiens, UniProt P00533); experiment: Selective-inhibition assay in DHER14 cells (receptor phosphotyrosine, Western blot); conditions: DHER14 cells expressing EGFR, 1 hour incubation, EGF stimulation
T2 construct: expressed in transfected cells; host or cells: NIH3T3 (DHER14 cells)
T2 sequence (P00533 25-1210): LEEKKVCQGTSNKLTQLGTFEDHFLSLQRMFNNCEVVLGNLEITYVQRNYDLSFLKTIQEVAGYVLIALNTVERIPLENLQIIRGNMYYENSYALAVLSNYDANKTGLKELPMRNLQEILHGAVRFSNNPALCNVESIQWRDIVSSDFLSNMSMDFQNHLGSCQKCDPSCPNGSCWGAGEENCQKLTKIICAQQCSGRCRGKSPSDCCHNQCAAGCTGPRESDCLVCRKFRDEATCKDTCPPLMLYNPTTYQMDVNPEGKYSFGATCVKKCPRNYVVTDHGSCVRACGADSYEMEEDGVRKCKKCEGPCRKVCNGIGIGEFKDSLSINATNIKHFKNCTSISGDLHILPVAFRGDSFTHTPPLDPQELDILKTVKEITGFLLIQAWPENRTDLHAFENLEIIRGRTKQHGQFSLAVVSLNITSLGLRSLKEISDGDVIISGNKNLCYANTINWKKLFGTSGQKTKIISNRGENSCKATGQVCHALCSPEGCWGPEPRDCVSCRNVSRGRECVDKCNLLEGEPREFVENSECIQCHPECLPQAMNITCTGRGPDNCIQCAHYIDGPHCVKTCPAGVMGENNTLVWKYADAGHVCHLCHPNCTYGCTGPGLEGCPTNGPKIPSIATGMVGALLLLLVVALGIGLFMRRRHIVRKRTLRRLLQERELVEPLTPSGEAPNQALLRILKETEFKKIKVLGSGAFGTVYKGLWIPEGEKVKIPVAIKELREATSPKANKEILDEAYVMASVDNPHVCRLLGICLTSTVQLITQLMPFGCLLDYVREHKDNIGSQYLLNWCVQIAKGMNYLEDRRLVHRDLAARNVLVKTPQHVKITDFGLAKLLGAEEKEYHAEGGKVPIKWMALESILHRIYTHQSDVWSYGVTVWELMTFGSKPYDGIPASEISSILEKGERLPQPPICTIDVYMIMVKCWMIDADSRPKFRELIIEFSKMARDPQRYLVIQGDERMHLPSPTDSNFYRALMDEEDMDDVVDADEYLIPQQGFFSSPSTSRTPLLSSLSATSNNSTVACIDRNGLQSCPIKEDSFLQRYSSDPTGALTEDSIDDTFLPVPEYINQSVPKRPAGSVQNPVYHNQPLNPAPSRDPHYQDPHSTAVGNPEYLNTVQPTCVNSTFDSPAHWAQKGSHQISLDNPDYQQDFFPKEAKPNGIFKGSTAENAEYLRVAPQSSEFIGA
Method: NIH3T3 cells transformed with either the EGFR (DHER14 cells), with the HER1-HER2 chimera (CSH12 cells) or with the PDGFR (NIH/PDGFR cells), decribed by Lee et al.; 1989, Honegger et al., 1988; and Shawver et al. 1997, and A431 human epidermoid vulval carcinoma cells were grown in Dulbecco's modified Eagle's medium (DMEM) (Biological industries, Kibbuts Beit Haemek, Israel) supplemented with 10% fetal calf serum and antibiotics (penicillin […], streptomycin 100 mg/liter) at 37° C. in 5% CO2.
Selective-inhibition assay: CSH12, DHER14 and […] cells, expressing either the HER1-HER2 chimera, EGFR or PDGFR, respectively, were used for the determination of inhibitory selectivity. Cells (7.5×10^4) were grown in 6-well plates (35 mm diameter, Nalge Nunc) for 24 hours and then incubated in 0.25% FCS-containing medium for an additional 24 hours to about 90% confluence. Duplicate sets of cells were treated with the tested compounds at varying concentrations for 1 hour. The final concentration of the vehicle in the medium was 0.05% DMSO, 0.1% EtOH. After removal of the inhibitor from the medium, PBS wash (×2) and addition of 0.25% serum-containing medium to the wells, the cells were stimulated with either 20 ng/mL human EGF for 5 minutes (CSH12 and DHER14 cells) or 50 ng/ml human PDGFββ for 10 minutes ([…] cells) at 37° C. […]

EGFR-TK = biological target: T3, EGFR-TK (Homo sapiens, UniProt P00533); experiment: EGFR-TK autophosphorylation inhibition in intact A431 cells (irreversibility assay, Western blot); conditions: inhibitor concentration at which 50% inhibition was achieved eight hours post incubation, intact A431 cells, eight hours post incubation
T3 construct: The supernatant, which contained the EGFR, was collected and frozen; endogenous in cells; host or cells: A431 cells (A1: Triton X-100 lysate captured on mAb108; A2: intact cells)
T3 sequence (P00533 25-1210): as above
Method: A431 cells (5×10^5) were seeded in 6-well plates and grown for 24 hours to about 90% confluence in DMEM (high glucose) containing 10% fetal calf serum (FCS) and antibiotics at 37° C. The cells were then exposed to serum-free medium, at 37° C., for 18 hours.
[…] The medium was replaced thereafter with an inhibitor/FCS-free medium and the cells were divided into two groups: cells of the first group were immediately stimulated with EGF (20 ng/ml) for 5 minutes and then washed with PBS, while cells of the second group were incubated for additional 8 hours, at 37° C. During the 8 hours period, the medium was changed three times (after 2, 4 and 8 hours). After the post-incubation period, the cells of the second group were stimulated with EGF (20 ng/ml) for 5 minutes and then washed with PBS.
as §1
After the incubation, the media was replaced with inhibitor/FCS-free media and the inhibition effect was measured either immediately thereafter or after 8 hours post incubation.

pIC50 (HER1-HER2 chimera): 7.30 to 7.60 | pIC50 (EGFR): 7.82 to 8.30 | pIC50 (EGFR-TK): 7.30 to 8.00
Compound: O=C(CCl)Nc1ccc2ncnc(Nc3cc(Cl)c(Cl)cc3F)c2c1 [Compound 5, N-{4-[(4,5-Dichloro-2-fluoro-phenyl)amino]-quinazolin-6-yl}-2-chloroacetamide]
